Reference: US20090023685A1, “Nebulized or Sprayed Cidofovir for Recurrent Respiratory Papillomatosis” (priority 2007, published 2009)
Entries after “also recorded” stand apart in the source; their conditions may differ.

Test system: Recurrent Respiratory Papillomatosis due to Human Papillomavirus subtype 6 (HPV-6)
Experiment: Case report: systemic, topical and nebulized cidofovir in a young child with recurrent respiratory papillomatosis
Assay type: in vivo
Procedure: We decided that applying cidofovir using a flexible bronchoscope and a cytology brush soaked in cidofovir would be a reasonable method to attempt to deliver the drug to the papillomas. We used the intravenous form of the drug, diluted to the concentration used in the gel based formula.
Therefore, we made a 4 ml solution at the same concentration we were using for the topical application.
Therefore, we elected to nebulize the drug (Cidofovir 10 mg/ml in NS, 4 cc, 3 times/week).
Background: a person is an ex-prem (24 week GA) born to a mom who had antenatal bleeding and had been given steroids prior to delivery. Their postnatal course was complicated by Respiratory distress syndrome (mechanical ventilation for 52 days, CPAP for 28 days and O2 for 30 days), a patent ductus arteriousus (indomethacin & surgical ligation), hemodynamic instability necessitating inotropic support and renal failure. Following discharge home a person had severe GERD, (L) inguinal hernia repair and was described to have colic.
Presentation: At 10½ months of age, they presented to the Children's Hospital Emergency Room with increasing difficulties breathing. […] They were admitted to hospital and subsequently transferred to the Pediatric intensive care unit. They were diagnosed with upper airway obstruction and treated with Heliox (80:20) and nebulized racemic epinephrine. […] They underwent tracheostomy.
Initial management: Suspension laryngoscopy with CO2 laser for debulking papillomas was performed ×6 (locally) and ×2 (larger tertiary centre) (FIG. 1b). […] Palliation was discussed with the […].
Adjuvant therapy: Medical management was initiated 6 months into treatment.
Topical and nebulized cidofovir: The patient was started on topically applied cidofovir via flexible bronchoscopy q2 weeks in addition to continuing the intravenous (systemic) dose. A cytology brush was soaked in cidofovir 10 mg/ml solution and advanced via the bronchoscope to the lower airway papillomas (FIG. 2a). We elected to start nebulized cidofovir to reduce the frequency of Bronchoscopic procedures and to intensify treatment. […] After 6 months of nebulized cidofovir, the dose was reduced to 2× weekly.
Current status: A large papilloma was surgically debulked (microdebridment) and topical cidofovir was topically applied to the base of the lesion. […] undergoes surveillance bronchoscopy q3 months and continues on nebulized cidofovir 5 mg/ml, 4 cc 2× weekly (FIGS. 2c and 3b).

## Nc1ccn(C[C@@H](CO)OCP(=O)(O)O)c(=O)n1 [cidofovir]
After nebulized cidofovir, surgical debulking of a large papilloma and topical cidofovir to its base
  current disease status: papilloma free; also recorded: Her disease has remitted
Intravenous (systemic) cidofovir 4.1 mg/kg/dose every 4 weeks
  effect on papillomatosis: without effect
Nebulized cidofovir
  effect in the lung (CT scans): improvement in the lung
Nebulized cidofovir 10 mg/ml, 4 ml (total dose 40 mg), 3× weekly
  complications / side effects: bleeding (dose dependent & related to infection with bacteria; also recorded: cough
Nebulized cidofovir 10 mg/ml, 4 ml (total dose 40 mg), 3× weekly, listed as Cidofovir
  complications / side effects: hemoptysis; also recorded: bleeding and protracted airways inflammation
Nebulized cidofovir after the dose was reduced (5 mg/ml; later 2 times/week)
  complications / side effects: resolution of the complications
Nebulized cidofovir after the dose was reduced (5 mg/ml; later 2 times/week), listed as Cidofovir
  complications / side effects: without complications
Nebulized cidofovir in saline, 4 ml, 2-3 times/week
  effect on lower airway papillomas: worked well; also recorded: reduction of the burden of the papillomas
Nebulized cidofovir in saline, 4 ml, 2-3 times/week, listed as Cidofovir
  effect on lower airway papillomas: lower airway lesions have visually disappeared
Nebulized cidofovir, droplet size 2-4 microns
  papillomas in the main airway (trachea): remained large
Systemic cidofovir q2 weeks plus Interferon α2b 5 MU/m^2 3× weekly, listed as Cidofovir
  course of disease: did not halt the progression of the disease
Systemic cidofovir stepped down to q3 weeks (with Interferon α2b)
  course of lesions: the lesions worsened
Topical cidofovir (10 mg/ml, thickened with sterile glycerine) applied by cytology brush via flexible bronchoscopy every 2 weeks
  effect on lower airway papillomas: worked to reduce the size of the papillomas
Topical cidofovir (10 mg/ml, thickened with sterile glycerine) applied by cytology brush via flexible bronchoscopy every 2 weeks, listed as Cidofovir
  effect on lower airway papillomas: The lesions regressed
